Blank lines part the entries; values can stand above or below the compound they belong to.
Assays:
[1] = test system: corneal vascularization elicited by bFGF or VEGF; conditions: compared to the R-form or racemic form (NPL 6); cited from earlier work
[2] = NPL 5; cited from earlier work
[3] = human blood plasma (NPL 10); cited from earlier work
[4] = Stability of lenalidomide in different solvents (HPLC peak areas of the enantiomers); assay type: physicochemical; conditions: 0.5 mg/mL racemic mixture, room temperature or 50° C., 24 hours
Procedure: A racemic mixture of 0.5 mg/mL lenalidomide in methanol, ethanol, isopropanol, acetonitrile or ethyl acetate, as the sample (product of Selleck Chemicals, US) was incubated at room temperature or at 50° C. for 24 hours, and the following HPLC conditions were employed for quantification of the lenalidomide enantiomers, for evaluation of the stability of lenalidomide in the different solvents.
(§1) Apparatus: Nanospace SI-2 Series (Shiseido Corp.)
Mobile phase: EtOH (100%)
Injection volume: 5 μL, Detection: UV 230 nm.
The peak areas for the enantiomers before and after incubation are shown in FIG. 1 (the initially observed peaks are enantiomer 1, and the next observed peaks are enantiomer 2). […] Lenalidomide was also stable even in isopropanol.

[5] = test system: recurrent intractable multiple myeloma; conditions: in combination with dexamethasone; cited from earlier work
[6] = Dependence of racemization of lenalidomide enantiomers on pH in aqueous buffers at room temperature; assay type: physicochemical
[7] = Racemization half-life in human serum (37° C.); conditions: for half-life in human serum compared to buffer: pH 7.4; for racemization half-life in serum, times longer than the corresponding TD enantiomer: human serum, 37° C.
From the text: The analysis method of the invention is shown as FIG. 15(b). The acid used to suspend the reaction while simultaneously precipitating and removing the protein was HClO4.
as §1

[8] = Racemization half-life under biological buffer conditions (Na-phosphorate buffer pH 7.4, 37° C.); conditions: average of 3 tests ± SD

Compound: 3-amino-phthalimide-glutarimide [S-pomalidomide]
inhibition of corneal vascularization [1]: significantly inhibit

Compound: O=C1CCC(N2C(=O)c3ccccc3C2=O)C(=O)N1 (racemic) [thalidomide]
sedative action [2]: only been reported with the R-form
racemization half-life in human blood plasma [3]: approximately 10 minutes

Compound: Nc1cccc2c1CN(C1CCC(=O)NC1=O)C2=O (racemic) [lenalidomide, Lenalidomide]
stability in solvent (decomposition) ([4]; acetonitrile and ethyl acetate): no decomposition was observed
stability in solvent ([4]; isopropanol): stable
stability in solvent ([4]; methanol and ethanol): highly unstable
success rate [5]: 60%
stability of the enantiomers ([6]; acidic conditions (<pH 4)): stable
increase of racemization half-life for every pH reduction of 1 ([6]; aqueous buffers pH 4 to 9, room temperature): 10 times
racemization half-life ([6]; pH 4, room temperature): estimation of the half-life was no longer possible
racemization and decomposition (peak areas) in aqueous buffer ([6]; pH 9 and 8, room temperature): racemization and decomposition of LL takes place

racemization half-life in human serum [7]: 0.548 ± 0.417 h
half-life in human serum compared to buffer [7]: 11.1%
racemization half-life in aqueous buffer [8]: 4.92 ± 0.4 h
Compound: O=C1CC[C@@H](N2C(=O)c3ccccc3C2=O)C(=O)N1 [(R)-TD, R-thalidomide]

Compound: Nc1cccc2c1CN([C@@H]1CCC(=O)NC1=O)C2=O (single isomer, unassigned) [(R*)-LL]
racemization half-life in serum, times longer than the corresponding TD enantiomer [7]: 3 times
racemization half-life in human serum [7]: 1.82 ± 0.0333 h
racemization half-life in aqueous buffer [8]: 4.45 ± 0.0183 h

racemization half-life in human serum [7]: 0.363 ± 0.0167 h
half-life in human serum compared to buffer [7]: 8.2%
racemization half-life in aqueous buffer [8]: 4.43 ± 0.167 h
Compound: O=C1CC[C@H](N2C(=O)c3ccccc3C2=O)C(=O)N1 [(S)-TD, S-thalidomide]

Compound: Nc1cccc2c1CN([C@H]1CCC(=O)NC1=O)C2=O (single isomer, unassigned) [(S*)-LL]
racemization half-life in serum, times longer than the corresponding TD enantiomer [7]: 6 times
racemization half-life in human serum [7]: 2.18 ± 0.0817 h
racemization on incubation in aqueous buffer ([6]; pH 6, room temperature): A small amount of (R*)-LL was produced
racemization on incubation in aqueous buffer ([6]; pH 7 and higher, room temperature): racemization was significantly accelerated
racemization half-life in aqueous buffer [8]: 4.53 ± 0.0217 h
